Results published in paper PMC12280919, “Arylsulfamates inhibit colonic Bacteroidota growth through a sulfatase-independent mechanism” (Proceedings of the National Academy of Sciences of the …, 2025).
Structures can show the parent of a compound that is named as a salt.

What was measured:
PaAstA [1] = molecular target: T1, PaAstA (Pseudomonas aeruginosa, UniProt P51691); assay: 4-nitrophenyl sulfate hydrolysis, A400; also preincubation and jump dilution; format: biochemical; settings: 1 mM compound, 1 mM 4-nitrophenyl sulfate, pH 7.0, 5 mM CaCl2, 20-25 °C; irreversible, covalent
T1 construct: gene atsA; S1_4 sulfatase

BT4322 = molecular target: T2, BT4322 (Bacteroides thetaiotaomicron, UniProt Q89ZQ4); assay: thermal shift assay (SYPRO Orange DSF); format: binding; settings: pH 7.0, 100 mM BTP, 150 mM NaCl, 5% DMSO
T2 construct: gene BT_4322; recombinant in E. coli
T2 sequence (Q89ZQ4 1-308): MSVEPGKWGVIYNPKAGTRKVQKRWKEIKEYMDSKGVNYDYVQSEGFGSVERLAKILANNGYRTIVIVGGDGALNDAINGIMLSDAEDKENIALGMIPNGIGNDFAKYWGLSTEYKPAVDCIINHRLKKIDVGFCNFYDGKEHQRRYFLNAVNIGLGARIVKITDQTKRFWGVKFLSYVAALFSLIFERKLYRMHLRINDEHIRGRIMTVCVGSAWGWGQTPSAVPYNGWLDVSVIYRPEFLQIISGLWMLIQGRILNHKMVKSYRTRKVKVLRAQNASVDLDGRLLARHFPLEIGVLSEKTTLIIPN

PaAstA [2] = molecular target: T1, PaAstA; assay: 4-nitrophenolate release, A400; format: biochemical; settings: 1 mM substrate, pH 7.0, 5 mM CaCl2, 20-25 °C
BT1636^3S-Gal = molecular target: T3, BT1636^3S-Gal (Bacteroides thetaiotaomicron, UniProt Q8A789, S77C); assay: microfluidic mobility shift desulfation assay after overnight preincubation and dilution; format: biochemical; settings: 1 mM compound, only after preincubation; BODIPY-labelled sulfated substrate, 5 mM CaCl2, 28 °C; formylglycine form
T3 construct: gene BT_1636; recombinant in E. coli TUNER, cobalt IMAC
T3 sequence (Q8A789 23-509 S77C): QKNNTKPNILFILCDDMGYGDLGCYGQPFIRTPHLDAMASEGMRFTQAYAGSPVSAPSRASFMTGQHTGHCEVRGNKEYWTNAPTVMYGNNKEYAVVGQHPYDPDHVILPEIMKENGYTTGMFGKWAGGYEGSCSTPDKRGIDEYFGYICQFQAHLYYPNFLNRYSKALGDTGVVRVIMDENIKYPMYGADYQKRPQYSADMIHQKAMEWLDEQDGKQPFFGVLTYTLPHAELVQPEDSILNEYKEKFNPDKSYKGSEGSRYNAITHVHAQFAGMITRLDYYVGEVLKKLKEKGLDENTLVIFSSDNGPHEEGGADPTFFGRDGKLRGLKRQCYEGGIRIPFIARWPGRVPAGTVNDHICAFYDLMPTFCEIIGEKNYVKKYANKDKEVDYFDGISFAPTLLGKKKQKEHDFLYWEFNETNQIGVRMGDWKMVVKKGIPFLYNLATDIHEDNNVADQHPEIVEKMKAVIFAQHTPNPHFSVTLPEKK

T1 sequence (P51691 2-536): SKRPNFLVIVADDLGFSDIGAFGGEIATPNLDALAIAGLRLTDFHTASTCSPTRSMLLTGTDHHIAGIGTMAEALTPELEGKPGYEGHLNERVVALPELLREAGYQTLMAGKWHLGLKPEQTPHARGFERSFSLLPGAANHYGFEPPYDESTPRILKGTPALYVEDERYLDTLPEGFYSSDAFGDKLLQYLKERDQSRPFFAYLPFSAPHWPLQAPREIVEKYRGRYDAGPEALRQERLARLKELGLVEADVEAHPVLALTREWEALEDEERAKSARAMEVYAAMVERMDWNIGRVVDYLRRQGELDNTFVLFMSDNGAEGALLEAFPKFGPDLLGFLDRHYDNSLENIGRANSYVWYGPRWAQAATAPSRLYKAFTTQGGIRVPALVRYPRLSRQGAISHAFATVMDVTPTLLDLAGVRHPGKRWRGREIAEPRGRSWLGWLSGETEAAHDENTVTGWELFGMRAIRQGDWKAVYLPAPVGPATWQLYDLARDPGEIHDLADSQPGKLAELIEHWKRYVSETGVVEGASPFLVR

## NS(=O)(=O)Oc1ccc(-c2ccccc2)cc1 [compound 2, 4-phenylphenyl sulfamate]
PaAstA [1]
  % inhibition at 1 mM: all arylsulfamates were broadly equivalent in their ability to completely inhibit both enzymes

## Cc1nc2sccn2c(=O)c1CCN1CCC(=C(c2ccccc2)c2ccc(F)cc2)CC1 [diacylglycerol kinase inhibitor I]
BT4322; destabilizing
  dTm: The DAGK-I inhibitor also caused concentration-dependent destabilization

## O=[N+]([O-])c1ccc(OS(=O)(=O)O)cc1 [4-nitrophenyl sulfate]
PaAstA [2]
  4-nitrophenolate release, A400: rapidly hydrolyzed by the family S1 steroid sulfatase PaAsta

## O=S(=O)(F)c1ccccc1 [compound 23, aryl sulfonylfluoride 23]
BT1636^3S-Gal
  % inhibition at 1 mM: > 50%

## COc1cc2ccccc2cc1OS(N)(=O)=O [compound 17, arylsulfamate 17]
PaAstA [1]
  % inhibition at 1 mM: all arylsulfamates were broadly equivalent in their ability to completely inhibit both enzymes

## Nc1ncnc2c1ncn2[C@@H]1O[C@H](COP(=O)(O)OP(=O)(O)OP(=O)(O)O)[C@@H](O)[C@H]1O [ATP]
BT4322; stabilizing
  dTm: The substrate ATP also stabilized BT4322

## O=c1c2ccccc2[nH]c(=S)n1CCN1CCC(=C(c2ccc(F)cc2)c2ccc(F)cc2)CC1 [diacylglycerol kinase inhibitor II]
BT4322; stabilizing
  dTm: DAGK-II caused a concentration-dependent stabilization
